Calls of active or inactive are those of the source. How the calls were made is not given here.
Tested on: CCRIS mutagenicity, Ames/micronucleus/aberration tests
Test: CCRIS mutagenicity studies

CC(C)c1ccccc1
mutagenic call (End Point: In vivo micronucleus, Test System: Polychromatic erythrocytes in bone marrow, Species: Rat, Strain/Sex: F344/N / Male, Route: Intraperitoneal): active; positive (both trials) | mutagenic call (End Point: In vivo micronucleus, Test System: Polychromatic erythrocytes in peripheral blood, Species: Mouse, Strain/Sex: B6C3F1/ Female, Route: Inhalation): inactive; negative | mutagenic call (End Point: In vivo micronucleus, Test System: Polychromatic erythrocytes in peripheral blood, Species: Mouse, Strain/Sex: B6C3F1/ Male, Route: Inhalation): inactive; negative | mutagenic call (Test System: Ames Salmonella typhimurium, Strain/Indicator: TA97, Metabolic Activation: Hamster, Liver, S-9, Aroclor 1254 (10%), Method: Preincubation): inactive; negative | mutagenic call (Test System: Ames Salmonella typhimurium, Strain/Indicator: TA97, Metabolic Activation: Hamster, Liver, S-9, Aroclor 1254 (30%), Method: Preincubation): inactive; negative | mutagenic call (Test System: Ames Salmonella typhimurium, Strain/Indicator: TA97, Metabolic Activation: None, Method: Preincubation): inactive; negative | mutagenic call (Test System: Ames Salmonella typhimurium, Strain/Indicator: TA97, Metabolic Activation: Rat, Liver, S-9, Aroclor 1254 (10%), Method: Preincubation): inactive; negative | mutagenic call (Test System: Ames Salmonella typhimurium, Strain/Indicator: TA97, Metabolic Activation: Rat, Liver, S-9, Aroclor 1254 (30%), Method: Preincubation): inactive; negative | mutagenic call (Test System: Ames Salmonella typhimurium, Strain/Indicator: TA98, Metabolic Activation: Hamster, Liver, S-9, Aroclor 1254 (10%), Method: Preincubation): inactive; negative | mutagenic call (Test System: Ames Salmonella typhimurium, Strain/Indicator: TA98, Metabolic Activation: Hamster, Liver, S-9, Aroclor 1254 (30%), Method: Preincubation): inactive; negative | mutagenic call (Test System: Ames Salmonella typhimurium, Strain/Indicator: TA98, Metabolic Activation: None, Method: Preincubation): inactive; negative | mutagenic call (Test System: Ames Salmonella typhimurium, Strain/Indicator: TA98, Metabolic Activation: Rat, Liver, S-9, Aroclor 1254 (10%), Method: Preincubation): inactive; negative | mutagenic call (Test System: Ames Salmonella typhimurium, Strain/Indicator: TA98, Metabolic Activation: Rat, Liver, S-9, Aroclor 1254 (30%), Method: Preincubation): inactive; negative | mutagenic call (Test System: Ames Salmonella typhimurium, Strain/Indicator: TA100, Metabolic Activation: Hamster, Liver, S-9, Aroclor 1254 (10%), Method: Preincubation): inactive; negative | mutagenic call (Test System: Ames Salmonella typhimurium, Strain/Indicator: TA100, Metabolic Activation: Hamster, Liver, S-9, Aroclor 1254 (30%), Method: Preincubation): inactive; negative | mutagenic call (Test System: Ames Salmonella typhimurium, Strain/Indicator: TA100, Metabolic Activation: None, Method: Preincubation): inactive; negative | mutagenic call (Test System: Ames Salmonella typhimurium, Strain/Indicator: TA100, Metabolic Activation: Rat, Liver, S-9, Aroclor 1254 (10%), Method: Preincubation): inactive; negative | mutagenic call (Test System: Ames Salmonella typhimurium, Strain/Indicator: TA100, Metabolic Activation: Rat, Liver, S-9, Aroclor 1254 (30%), Method: Preincubation): inactive; negative | mutagenic call (Test System: Ames Salmonella typhimurium, Strain/Indicator: TA1535, Metabolic Activation: Hamster, Liver, S-9, Aroclor 1254 (10%), Method: Preincubation): inactive; negative | mutagenic call (Test System: Ames Salmonella typhimurium, Strain/Indicator: TA1535, Metabolic Activation: Hamster, Liver, S-9, Aroclor 1254 (30%), Method: Preincubation): inactive; negative | mutagenic call (Test System: Ames Salmonella typhimurium, Strain/Indicator: TA1535, Metabolic Activation: None, Method: Preincubation): inactive; negative | mutagenic call (Test System: Ames Salmonella typhimurium, Strain/Indicator: TA1535, Metabolic Activation: Rat, Liver, S-9, Aroclor 1254 (10%), Method: Preincubation): inactive; negative | mutagenic call (Test System: Ames Salmonella typhimurium, Strain/Indicator: TA1535, Metabolic Activation: Rat, Liver, S-9, Aroclor 1254 (30%), Method: Preincubation): inactive; negative

Nc1nc2c(ncn2[C@@H]2C=C[C@H](CO)C2)c(=O)[nH]1
mutagenic call (Test System: AMES SALMONELLA TYPHIMURIUM, Strain/Indicator: TA98, Metabolic Activation: HAMSTER, LIVER, S-9, AROCLOR 1254 (10%), Method: STANDARD PLATE): inactive; negative | mutagenic call (Test System: AMES SALMONELLA TYPHIMURIUM, Strain/Indicator: TA98, Metabolic Activation: NONE, Method: STANDARD PLATE): inactive; negative | mutagenic call (Test System: AMES SALMONELLA TYPHIMURIUM, Strain/Indicator: TA98, Metabolic Activation: RAT, LIVER, S-9, AROCLOR 1254 (10%), Method: STANDARD PLATE): inactive; negative | mutagenic call (Test System: AMES SALMONELLA TYPHIMURIUM, Strain/Indicator: TA100, Metabolic Activation: HAMSTER, LIVER, S-9, AROCLOR 1254 (10%), Method: STANDARD PLATE): inactive; negative | mutagenic call (Test System: AMES SALMONELLA TYPHIMURIUM, Strain/Indicator: TA100, Metabolic Activation: NONE, Method: STANDARD PLATE): inactive; negative | mutagenic call (Test System: AMES SALMONELLA TYPHIMURIUM, Strain/Indicator: TA100, Metabolic Activation: RAT, LIVER, S-9, AROCLOR 1254 (10%), Method: STANDARD PLATE): inactive; negative | mutagenic call (Test System: AMES SALMONELLA TYPHIMURIUM, Strain/Indicator: TA1535, Metabolic Activation: HAMSTER, LIVER, S-9, AROCLOR 1254 (10%), Method: STANDARD PLATE): inactive; negative | mutagenic call (Test System: AMES SALMONELLA TYPHIMURIUM, Strain/Indicator: TA1535, Metabolic Activation: NONE, Method: STANDARD PLATE): inactive; negative | mutagenic call (Test System: AMES SALMONELLA TYPHIMURIUM, Strain/Indicator: TA1535, Metabolic Activation: RAT, LIVER, S-9, AROCLOR 1254 (10%), Method: STANDARD PLATE): inactive; negative | mutagenic call (Test System: AMES SALMONELLA TYPHIMURIUM, Strain/Indicator: TA1537, Metabolic Activation: HAMSTER, LIVER, S-9, AROCLOR 1254 (10%), Method: STANDARD PLATE): inactive; negative | mutagenic call (Test System: AMES SALMONELLA TYPHIMURIUM, Strain/Indicator: TA1537, Metabolic Activation: NONE, Method: STANDARD PLATE): inactive; negative | mutagenic call (Test System: AMES SALMONELLA TYPHIMURIUM, Strain/Indicator: TA1537, Metabolic Activation: RAT, LIVER, S-9, AROCLOR 1254 (10%), Method: STANDARD PLATE): inactive; negative | mutagenic call (Test System: AMES SALMONELLA TYPHIMURIUM, Strain/Indicator: TA1538, Metabolic Activation: HAMSTER, LIVER, S-9, AROCLOR 1254 (10%), Method: STANDARD PLATE): inactive; negative | mutagenic call (Test System: AMES SALMONELLA TYPHIMURIUM, Strain/Indicator: TA1538, Metabolic Activation: NONE, Method: STANDARD PLATE): inactive; negative | mutagenic call (Test System: AMES SALMONELLA TYPHIMURIUM, Strain/Indicator: TA1538, Metabolic Activation: RAT, LIVER, S-9, AROCLOR 1254 (10%), Method: STANDARD PLATE): inactive; negative | mutagenic call (Test System: MOUSE LYMPHOMA, Strain/Indicator: L5178Y (TK+/TK-), Metabolic Activation: NONE, Method: SUSPENSION/PLATE): inactive; negative. reevaluation of results: inconclusive | mutagenic call (Test System: MOUSE LYMPHOMA, Strain/Indicator: L5178Y (TK+/TK-), Metabolic Activation: RAT, LIVER, S-9, AROCLOR 1254, Method: SUSPENSION/PLATE): active; positive; reevaluation of results: positive | mutagenic call (Test System: Mouse lymphoma, Strain/Indicator: L5178Y (tk+/tk-), Metabolic Activation: None, Method: Suspension/plate): inactive; negative | mutagenic call (Test System: Mouse lymphoma, Strain/Indicator: L5178Y (tk+/tk-), Metabolic Activation: Rat, Liver, S-9, Aroclor 1254, Method: Suspension/plate): inactive; negative

O=C1CSC(=S)N1
mutagenic call (Test System: AMES SALMONELLA TYPHIMURIUM, Strain/Indicator: TA98, Metabolic Activation: HAMSTER, LIVER, S-9, AROCLOR 1254 (10%), Method: PREINCUBATION): inactive; negative | mutagenic call (Test System: AMES SALMONELLA TYPHIMURIUM, Strain/Indicator: TA98, Metabolic Activation: NONE, Method: PREINCUBATION): inactive; negative | mutagenic call (Test System: AMES SALMONELLA TYPHIMURIUM, Strain/Indicator: TA98, Metabolic Activation: RAT, LIVER, S-9, AROCLOR 1254 (10%), Method: PREINCUBATION): inactive; negative | mutagenic call (Test System: AMES SALMONELLA TYPHIMURIUM, Strain/Indicator: TA100, Metabolic Activation: HAMSTER, LIVER, S-9, AROCLOR 1254 (10%), Method: PREINCUBATION): inactive; negative | mutagenic call (Test System: AMES SALMONELLA TYPHIMURIUM, Strain/Indicator: TA100, Metabolic Activation: NONE, Method: PREINCUBATION): inactive; negative | mutagenic call (Test System: AMES SALMONELLA TYPHIMURIUM, Strain/Indicator: TA100, Metabolic Activation: RAT, LIVER, S-9, AROCLOR 1254 (10%), Method: PREINCUBATION): inactive; negative | mutagenic call (Test System: AMES SALMONELLA TYPHIMURIUM, Strain/Indicator: TA1535, Metabolic Activation: HAMSTER, LIVER, S-9, AROCLOR 1254 (10%), Method: PREINCUBATION): inactive; negative | mutagenic call (Test System: AMES SALMONELLA TYPHIMURIUM, Strain/Indicator: TA1535, Metabolic Activation: NONE, Method: PREINCUBATION): inactive; negative | mutagenic call (Test System: AMES SALMONELLA TYPHIMURIUM, Strain/Indicator: TA1535, Metabolic Activation: RAT, LIVER, S-9, AROCLOR 1254 (10%), Method: PREINCUBATION): inactive; negative | mutagenic call (Test System: AMES SALMONELLA TYPHIMURIUM, Strain/Indicator: TA1537, Metabolic Activation: HAMSTER, LIVER, S-9, AROCLOR 1254 (10%), Method: PREINCUBATION): inactive; negative | mutagenic call (Test System: AMES SALMONELLA TYPHIMURIUM, Strain/Indicator: TA1537, Metabolic Activation: NONE, Method: PREINCUBATION): inactive; negative | mutagenic call (Test System: AMES SALMONELLA TYPHIMURIUM, Strain/Indicator: TA1537, Metabolic Activation: RAT, LIVER, S-9, AROCLOR 1254 (10%), Method: PREINCUBATION): inactive; negative

Reference: PubChem BioAssay AID1259407 (Chemical Carcinogenesis Research Information System (CCRIS), 2018)
